Results as given in the supplement of paper PMC10307832.

Compound: Cc1cc(Nc2cc(N3CCN(C)CC3)nc(Sc3ccc(NC(=O)C4CC4)cc3)n2)n[nH]1 [Tozasertib]
Assay: relative viability (nuclei count vs DMSO), 5 days (fraction); higher = more cells survive
How it was run: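 MetaXpress counted nuclei in 4× images of lung cancer cell lines that had been fixed, permeabilised and Hoechst-stained in one step. Before that, cells in 1536-well plates were kept overnight at 37 °C, pinned with five √10-spaced library-drug doses on vehicle-anchored plates, and cultured 5 days without medium change. Viability takes treated-well nuclei over vehicle-well nuclei and uses the median across plates. Plates were accepted only at control CV below 25% and at least one doubling.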

Cell Line | relative viability (0.004 µM) | relative viability (0.01265 µM) | relative viability (0.04 µM) | relative viability (0.1 µM, anchor plate) | relative viability (0.1265 µM)
201T | 0.973 | 0.956 | 0.968 | 0.915 | 0.89
A549 | 1.02 | 0.982 | 1.05 | – | 0.488
A-427 | 1.04 | 0.911 | 1.08 | 0.212 | 0.505
ABC-1 | 1.02 | 0.858 | 0.767 | 0.186 | 0.412
BEN | 1.11 | 0.921 | 1.06 | – | 0.759
CAL-12T | 1.09 | – | 0.952 | 0.309 | 0.42
COR-L23 | 1.02 | 0.958 | 0.947 | 0.203 | 0.701
COR-L 105 | 0.956 | 0.974 | 0.957 | 0.36 | 0.473
ChaGo-K-1 | 1.06 | 1 | 1 | 0.233 | 0.858
EKVX | 0.939 | 0.937 | 0.988 | 0.386 | 0.898
EMC-BAC-2 | 1.01 | 0.946 | 0.913 | 0.294 | 0.486
EPLC-272H | 0.981 | – | 1 | 0.296 | 0.55
H3255 | 1.07 | 0.854 | 0.966 | 0.721 | 0.833
HARA | 0.981 | – | 1.01 | 0.11 | 0.519
HCC-15 | 1.06 | 0.936 | 1.04 | 0.393 | 0.687
HCC-44 | 1.02 | 0.903 | 1.01 | 0.974 | –
HCC-78 | 1.1 | 0.819 | 1.09 | 0.464 | 0.806
HCC-366 | 0.991 | 1.01 | 1.08 | 0.123 | 0.93
HCC-827 | 1.1 | 1.04 | 1.09 | 0.414 | 0.976
HOP-62 | 1.02 | 0.992 | 0.987 | 0.398 | 0.88
LC-2-ad | 1.06 | 0.913 | 0.928 | 0.453 | 0.494
LCLC-97TM1 | 1.07 | 0.94 | 0.906 | 0.236 | 0.396
LCLC-103H | 1.06 | 1.06 | 1.02 | 0.499 | 0.952
LK-2 | 1.09 | 0.847 | 1.09 | 0.176 | 0.489
LOU-NH91 | 0.787 | 0.918 | 1.1 | 0.659 | 0.9

Cell Line | relative viability (0.004 µM) | relative viability (0.01265 µM) | relative viability (0.04 µM) | relative viability (0.1 µM, anchor plate) | relative viability (0.1265 µM)
LU99A | 1.05 | 0.904 | 0.824 | 0.282 | 0.594
LXF-289 | 1 | 0.972 | 0.943 | 0.199 | 0.759
NCI-H23 | 1.05 | 0.953 | 0.885 | 0.365 | 0.501
NCI-H322M | 0.92 | – | 1.02 | 0.493 | 0.682
NCI-H358 | 1 | – | 0.977 | 0.109 | 0.37
NCI-H441 | 0.987 | – | – | 0.664 | –
NCI-H460 | 1.01 | 0.955 | 1.04 | 0.415 | 0.868
NCI-H520 | 1.07 | 0.934 | 1.07 | 0.458 | 0.547
NCI-H522 | 1.12 | 1 | 1.05 | 0.565 | 0.671
NCI-H596 | 0.993 | 0.883 | 1.01 | 0.919 | 0.988
NCI-H647 | 1.04 | – | 0.926 | 0.279 | 0.458
NCI-H650 | 0.993 | 0.934 | 0.918 | 0.724 | 0.606
NCI-H661 | 0.976 | 0.94 | 1 | 0.367 | 0.68
NCI-H727 | 1.15 | 0.879 | 1.11 | 0.667 | 0.78
NCI-H838 | 0.994 | 0.951 | 1.06 | 0.265 | 0.683
NCI-H1355 | 1.03 | 0.956 | 1.05 | 0.585 | 0.817
NCI-H1395 | 1.03 | 0.817 | 0.776 | 0.768 | 0.495
NCI-H1437 | 1.01 | 0.941 | 0.924 | 0.406 | –
NCI-H1650 | 1.03 | 0.918 | 1.09 | 0.418 | 0.502
NCI-H1651 | 1.02 | 0.949 | 0.984 | 0.698 | 0.922
NCI-H1666 | 0.901 | 0.892 | 0.975 | 0.601 | 0.846
NCI-H1703 | 1.04 | 0.857 | 1.21 | – | 0.556
NCI-H1734 | 1.01 | 0.957 | 0.95 | 0.266 | 0.504
NCI-H1755 | 1.03 | 0.994 | 1.04 | 0.577 | 0.953
NCI-H1792 | 1.16 | 0.781 | 1.01 | – | 0.613

Cell Line | relative viability (0.004 µM) | relative viability (0.01265 µM) | relative viability (0.04 µM) | relative viability (0.1 µM, anchor plate) | relative viability (0.1265 µM)
NCI-H1793 | 1.03 | 0.76 | 1.01 | 0.384 | 0.892
NCI-H1915 | 1.04 | 0.986 | 0.934 | 0.435 | 0.795
NCI-H1944 | 1.01 | 0.963 | 0.901 | 0.263 | 0.526
NCI-H1975 | 1.04 | 0.91 | 1.06 | 0.759 | 0.85
NCI-H1993 | 1.03 | 0.782 | 0.939 | 0.58 | 0.676
NCI-H2009 | 1.03 | 0.951 | 1 | 0.74 | 0.885
NCI-H2023 | 0.999 | 0.985 | 1.14 | 0.369 | 0.605
NCI-H2085 | 1.02 | 0.982 | 0.984 | 0.84 | 0.915
NCI-H2087 | 1.16 | 1.02 | 1.11 | 0.254 | 0.581
NCI-H2126 | 0.996 | 1.06 | 1.04 | 0.846 | 0.925
NCI-H2170 | 0.964 | 1.01 | 0.954 | 0.755 | 0.893
NCI-H2228 | 1.08 | 1.07 | 1.03 | 0.265 | 0.607
NCI-H2342 | 0.997 | – | – | 0.52 | 0.909
NCI-H2347 | 1.03 | 1 | 1.08 | 0.573 | 0.941
NCI-H2405 | 1.04 | 1.01 | 0.992 | 0.731 | 0.885
NCI-H3122 | 0.965 | 0.976 | – | 0.421 | 1.01
PC-3 [JPC-3] | 0.918 | 0.981 | 1.05 | 0.88 | 0.733
PC-14 | 0.81 | 0.904 | 1.1 | 0.601 | 0.638
RERF-LC-KJ | 0.942 | 0.914 | 1.04 | 0.491 | 0.895
SK-LU-1 | 1.09 | 1.11 | 1.14 | 0.334 | 0.964
SK-MES-1 | 1.03 | 1 | 1.1 | 0.885 | 0.955
SW 900 | 1.06 | 0.736 | 0.933 | 0.566 | 0.62
SW 1573 | 1.02 | 0.904 | 0.945 | 0.191 | 0.48
UMC-11 | 1.03 | 0.898 | 0.966 | 0.206 | 0.342
